US11667630B2, “Nitrogen-containing 6-membered cyclic compound” (Asahi Kasei Pharma Corporation, priority 2017, dated 2023)

How the values were obtained:
human EP4 receptor = human EP4 receptor (Homo sapiens, UniProt P35408); experiment: Measurement of EP4 agonist activity (cAMP production); format: cell-based; parameters: expressed in transfected cells; host or cells: HEK293; settings: cAMP production in HEK293 cells stably expressing human EP4 receptor; average values where measured two or more times
Sequence of human EP4 receptor (P35408 whole entry): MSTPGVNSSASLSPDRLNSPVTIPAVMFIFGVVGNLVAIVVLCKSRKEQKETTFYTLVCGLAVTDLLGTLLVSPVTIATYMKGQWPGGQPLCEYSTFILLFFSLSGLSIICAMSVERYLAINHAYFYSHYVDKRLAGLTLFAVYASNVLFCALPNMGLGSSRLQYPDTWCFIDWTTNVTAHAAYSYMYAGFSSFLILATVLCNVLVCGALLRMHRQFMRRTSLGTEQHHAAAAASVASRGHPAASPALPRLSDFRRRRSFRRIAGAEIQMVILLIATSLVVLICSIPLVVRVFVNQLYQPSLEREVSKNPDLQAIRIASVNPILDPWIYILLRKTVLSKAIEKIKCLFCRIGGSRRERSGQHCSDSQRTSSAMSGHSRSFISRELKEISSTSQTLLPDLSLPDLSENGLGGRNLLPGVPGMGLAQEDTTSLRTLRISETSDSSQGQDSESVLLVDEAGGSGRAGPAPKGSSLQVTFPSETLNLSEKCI
Procedure: In order to investigate EP4 receptor agonist activity of the compounds of the present invention, production of cAMP was measured in HEK293 cells that were made to stably express the human EP4 receptor.
By using Refseq Database, prostaglandin E receptor was searched for. As a result, gene information of human EP4 (NM_000958) receptor was obtained. On the basis of this sequence information, the human EP4 receptor gene was cloned by PCR in a conventional manner using human cDNA as the template, and HEK293 cells that were made to stably express the human EP4 receptor were established. When cryopreserved cells of this strain were thawed and used, cells subcultured three times or more within a certain period of time (about 1 to 2 weeks) by using Dulbecco's Modified Eagle's Medium (Dulbecco's Modified Eagle's Medium may be henceforth abbreviated as DMEM) containing 10% FBS, 50 units each of penicillin and streptomycin were used. The subcultured cells were inoculated in wells of a poly-D-lysine-coated 96-well plate at a density of 2×10^4 to 2.5×10^4 cells/well, and cultured for one day. The medium in the wells was removed by suction, then DMEM (80 μL) was added to each well, and incubation was performed at 37° C. for 15 minutes. […] The reaction was allowed at 37° C. for 30 minutes, then the medium was removed by suction, Assay/Lysis Buffer (100 μL) contained in cAMP Screen Kit (produced by Applied Biosystems) was added to terminate the reaction. Then, the reaction mixture was incubated at 37° C. for 30 minutes to prepare a sample for quantification of cAMP, and the amount of cAMP in the sample was quantified according to the method indicated in cAMP Screen Kit. By non-linear regression of the compound concentration and the amount of cAMP, the concentration of the compound required for increasing cAMP to 50% of the maximum increase (EC50 value) was calculated by using the Kaleida Graph.

rat femur = experiment: Neo-osteogenesis action in rat femur; format: in vivo; settings: female SD rats, one week after administration; for Bone mineral content of femur 1/3 center region (mg) Left femur (administered with compound): 100 μg test compound in in situ-solidified gel solution injected between quadriceps and periosteum; for Bone mineral content of femur 1/3 center region (mg) Right femur (no administration of compound): contralateral femur, 100 μg test compound given at left femur
Procedure: Eight weeks old female SD rats (Charles River Japan) were fixed in the side lying position under triple anesthesia (medetomidine hydrochloride, midazolam, and butorphanol tartrate). After hair of the left femoral region was shaved with a hair clipper, and disinfection treatment was performed with 70% ethanol, an in situ-solidified gel solution of a test compound, specifically, a test compound dissolved in poly(lactic-co-glycolic acid) (RESOMER RG502H, produced by Evonik Industries)/poly(lactic-co-glycolic acid)-polyethylene glycol block copolymer (5050 DLG mPEG 5000, produced by Lakeshore Biomaterials)/N-methyl-2-pyrroridone (produced by Wako) (weight ratio 47%/3%/50%), was filled in a 1-mL syringe, a 21G injection needle was attached to the syringe, and the needle was transdermally stabbed from the quadriceps to the periosteum near the center of the femoral diaphyseal. Then, 100 μg as the amount of the test compound, or 50 μL as the administration volume of the solution was injected between the quadriceps and the periosteum, and the injection needle was drawn out. To the rats of the control group, the aforementioned in situ-solidified gel solution alone was administered. One week after the administration of the drug solution, the triple anesthesia was given to the animals, and they were fixed in the supine position, and euthanized by bleeding. […], circumferential tissues such as muscles were removed, the bone mineral content of the whole femur was measured by using a bone mineral analyzer DCS-600EX (produced by ALOKA), then it was divided into three portions along the long axis, and the bone mineral content of the center part (diaphysis) was evaluated. The test was performed with the groups each consisting of 6 animals.

Compound	EC50 (human EP4 receptor)	Bone mineral content of femur 1/3 center region (mg) Left femur (administered with compound) (rat femur)	Bone mineral content of femur 1/3 center region (mg) Right femur (no administration of compound) (rat femur)
O=C(O)c1ccc(CCN2C(=O)SCCN2CCC(O)Cc2cccc(Br)c2)cc1 (centres unmarked) [Comparative Example 1, 4-(2-(4-(4-(3-Bromophenyl)-3-hydroxybutyl)-2-oxo-1,3,4-thiadiazinan-3-yl)ethyl)benzoic acid, reference compound]	2.5 nM	–	–
O=C(O)c1ccc(CCN2C(=O)SCCN2CCC(O)Cc2cccc(C#Cc3cccs3)c2)s1 (centres unmarked) [Example 3, 5-(2-(4-(3-Hydroxy-4-(3-(thiophen-2-ylethynyl)phenyl)butyl)-2-oxo-1,3,4-thiadiazinan-3-yl)ethyl)thiophene-2-carboxylic acid]	0.13 nM	80.2 ± 2.6 mg	66.7 ± 2.7 mg
Cc1cscc1C#Cc1cccc(CC(O)CCN2CCSC(=O)N2CCc2ccc(C(=O)O)s2)c1 (centres unmarked) [Example 4, 5-(2-(4-(3-Hydroxy-4-(3-((4-methylthiophen-3-yl)ethynyl)phenyl)butyl)-2-oxo-1,3,4-thiadiazinan-3-yl)ethyl)thiophene-2-carboxylic acid]	0.34 nM	–	–
O=C(O)c1ccc(CCN2C(=O)SCCN2CCC(O)Cc2cccc(C#Cc3ccsc3Cl)c2)s1 (centres unmarked) [Example 5, 5-(2-(4-(4-(3-((2-Chlorothiophen-3-yl)ethynyl)phenyl)-3-hydroxybutyl)-2-oxo-1,3,4-thiadiazinan-3-yl)ethyl)thiophene-2-carboxylic acid]	0.3 nM	–	–
Cc1cc(C#Cc2cccc(CC(O)CCN3CCSC(=O)N3CCc3ccc(C(=O)O)s3)c2)cs1 (centres unmarked) [Example 6, 5-(2-(4-(3-Hydroxy-4-(3-((5-methylthiophen-3-yl)ethynyl)phenyl)butyl)-2-oxo-1,3,4-thiadiazinan-3-yl)ethyl)thiophene-2-carboxylic acid]	0.56 nM	81.3 ± 3.6 mg	64.7 ± 2.4 mg
N#Cc1sccc1C#Cc1cccc(CC(O)CCN2CCSC(=O)N2CCc2ccc(C(=O)O)s2)c1 (centres unmarked) [Example 8, 5-(2-(4-(4-(3-((2-Cyanothiophen-3-yl)ethynyl)phenyl)-3-hydroxybutyl)-2-oxo-1,3,4-thiadiazinan-3-yl)ethyl)thiophene-2-carboxylic acid]	–	98.7 ± 4.1 mg	–
N#Cc1cc(C#Cc2cccc(CC(O)CCN3CCSC(=O)N3CCc3ccc(C(=O)O)s3)c2)cs1 (centres unmarked) [Example 12, 5-(2-(4-(4-(3-((5-Cyanothiophen-3-yl)ethynyl)phenyl)-3-hydroxybutyl)-2-oxo-1,3,4-thiadiazinan-3-yl)ethyl)thiophene-2-carboxylic acid]	0.6 nM	–	–
N#Cc1ccsc1C#Cc1cccc(CC(O)CCN2CCSC(=O)N2CCc2ccc(C(=O)O)s2)c1 (centres unmarked) [Example 14, 5-(2-(4-(4-(3-((3-Cyanothiophen-2-yl)ethynyl)phenyl)-3-hydroxybutyl)-2-oxo-1,3,4-thiadiazinan-3-yl)ethyl)thiophene-2-carboxylic acid]	0.3 nM	–	–
O=C(O)c1ccc(CCN2C(=O)SCCN2CCC(O)Cc2cccc(C#Cc3ccccc3)c2)s1 (centres unmarked) [Example 15, 5-(2-(4-(3-Hydroxy-4-(3-(phenylethynyl)phenyl)butyl)-2-oxo-1,3,4-thiadiazinan-3-yl)ethyl)thiophene-2-carboxylic acid]	0.63 nM	–	–
COc1ccccc1C#Cc1cccc(CC(O)CCN2CCSC(=O)N2CCc2ccc(C(=O)O)s2)c1 (centres unmarked) [Example 16, 5-(2-(4-(3-Hydroxy-4-(3-((2-methoxyphenyl)ethynyl)phenyl)butyl)-2-oxo-1,3,4-thiadiazinan-3-yl)ethyl)thiophene-2-carboxylic acid]	0.4 nM	–	–
Cc1ccc(CC(O)CCN2CCSC(=O)N2CCc2ccc(C(=O)O)s2)cc1C#Cc1ccsc1 (centres unmarked) [Example 18, 5-(2-(4-(3-Hydroxy-4-(4-methyl-3-(thiophen-3-ylethynyl)phenyl)butyl)-2-oxo-1,3,4-thiadiazinan-3-yl)ethyl)thiophene-2-carboxylic acid]	0.1 nM	–	–
O=C(O)c1ccc(CCN2C(=O)SCCN2CCC(O)Cc2cccc(C#Cc3cscc3-c3ccccc3)c2)s1 (centres unmarked) [Example 21, 5-(2-(4-(3-Hydroxy-4-(3-((4-phenylthiophen-3-yl)ethynyl)phenyl)butyl)-2-oxo-1,3,4-thiadiazinan-3-yl)ethyl)thiophene-2-carboxylic acid]	0.5 nM	–	–
N#Cc1sccc1C#Cc1cccc(C[C@H](O)CCN2CCSC(=O)N2CCc2ccc(C(=O)O)s2)c1 [Example 24, (S)-5-(2-(4-(4-(3-((2-Cyanothiophen-3-yl)ethynyl)phenyl)-3-hydroxybutyl)-2-oxo-1,3,4-thiadiazinan-3-yl)ethyl)thiophene-2-carboxylic acid]	–	80.7 ± 4.0 mg	–
O=C(O)c1ccc(CCN2C(=O)SCCN2CCC(O)Cc2cccc(/C=C/c3ccsc3)c2)s1 (centres unmarked) [Example 27, (E)-5-(2-(4-(3-Hydroxy-4-(3-(2-(thiophen-3-yl)vinyl)phenyl)butyl)-2-oxo-1,3,4-thiadiazinan-3-yl)ethyl)thiophene-2-carboxylic acid]	0.09 nM	–	–
O=C(O)c1ccc(CCN2C(=O)OCCN2CCC(O)Cc2cccc(C#Cc3ccsc3)c2)s1 (centres unmarked) [Example 29, 5-(2-(4-(3-Hydroxy-4-(3-(thiophen-3-ylethynyl)phenyl)butyl)-2-oxo-1,3,4-oxadiazinan-3-yl)ethyl)thiophene-2-carboxylic acid]	0.16 nM	–	–

Continued, in another order:

EC50 (human EP4 receptor)	Compound	Bone mineral content of femur 1/3 center region (mg) Left femur (administered with compound) (rat femur)	Bone mineral content of femur 1/3 center region (mg) Right femur (no administration of compound) (rat femur)
0.045 nM	O=C(O)c1ccc(CCN2C(=O)SCCN2CCC(O)Cc2cccc(C#Cc3ccsc3)c2)s1 (centres unmarked) [Example 1, 5-(2-(4-(3-Hydroxy-4-(3-(thiophen-3-ylethynyl)phenyl)butyl)-2-oxo-1,3,4-thiadiazinan-3-yl)ethyl)thiophene-2-carboxylic acid]	–	–
0.035 nM	O=C(O)c1cc(Br)c(CCN2C(=O)SCCN2CCC(O)Cc2cccc(C#Cc3ccsc3)c2)s1 (centres unmarked) [Example 2, 4-Bromo-5-(2-(4-(3-hydroxy-4-(3-(thiophen-3-ylethynyl)phenyl)butyl)-2-oxo-1,3,4-thiadiazinan-3-yl)ethyl)thiophene-2-carboxylic acid]	–	–
0.09 nM	N#Cc1cscc1C#Cc1cccc(CC(O)CCN2CCSC(=O)N2CCc2ccc(C(=O)O)s2)c1 (centres unmarked) [Example 7, 5-(2-(4-(4-(3-((4-Cyanothiophen-3-yl)ethynyl)phenyl)-3-hydroxybutyl)-2-oxo-1,3,4-thiadiazinan-3-yl)ethyl)thiophene-2-carboxylic acid]	–	–
0.09 nM	O=C(O)c1ccc(CCN2C(=O)SCCN2CCC(O)Cc2cccc(C#Cc3cscn3)c2)s1 (centres unmarked) [Example 9, 5-(2-(4-(3-Hydroxy-4-(3-(thiazol-4-ylethynyl)phenyl)butyl)-2-oxo-1,3,4-thiadiazinan-3-yl)ethyl)thiophene-2-carboxylic acid]	–	–
0.09 nM	O=C(O)c1ccc(CCN2C(=O)SCCN2CCC(O)Cc2cccc(C#Cc3ccco3)c2)s1 (centres unmarked) [Example 11, 5-(2-(4-(4-(3-(Furan-2-ylethynyl)phenyl)-3-hydroxybutyl)-2-oxo-1,3,4-thiadiazinan-3-yl)ethyl)thiophene-2-carboxylic acid]	–	–
0.026 nM	O=C(O)c1cc(Cl)c(CCN2C(=O)SCCN2CCC(O)Cc2cccc(C#Cc3ccsc3)c2)s1 (centres unmarked) [Example 17, 4-Chloro-5-(2-(4-(3-hydroxy-4-(3-(thiophen-3-ylethynyl)phenyl)butyl)-2-oxo-1,3,4-thiadiazinan-3-yl)ethyl)thiophene-2-carboxylic acid]	–	–
0.087 nM	O=C(O)c1cc(Cl)c(CCN2C(=O)SCCN2CCC(O)Cc2cccc(C#Cc3ccccn3)c2)s1 (centres unmarked) [Example 28, 4-Chloro-5-(2-(4-(3-hydroxy-4-(3-(pyridin-2-ylethynyl)phenyl)butyl)-2-oxo-1,3,4-thiadiazinan-3-yl)ethyl)thiophene-2-carboxylic acid]	–	–
